Key:
Assay type in all cases: binding
[1] = target: T1, GDP-loaded K-Ras (1-169) G12D, C51S, C80L, C118S (Homo sapiens, UniProt P01116, C118S/C51S/C80L/G12D); assay: K-Ras G12D(GDP) cross-linking assay (conjugate formation, TOF mass spectrometry); parameters: key: 0: No observed x-linking; +: 0 < x ≤ 20; ++: 20 < x ≤ 40; +++: 40 < x ≤ 100; conditions: Table 4; percent covalently modified K-Ras by MS; room temperature; typical compound conc. 2, 10, 25 μM, endpoints 1 and 24 h
T1 construct: GDP-loaded K-Ras (1-169) G12D, C51S, C80L, C118S
How it was run: (§1)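 5 μM protein (final, from 50 μM) in HEPES/NaCl/MgCl2 buffer pH 7.4 with compound typically at 2, 10 and 25 μM, room temperature, 1 and 24 h endpoints; formic acid quench. Intact-protein LC–TOF MS; percent modification is covalent adduct peak height over total K-Ras peak height.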

K-Ras G12S = K-Ras G12S (Homo sapiens, UniProt P01116, G12S); assay: K-Ras G12S cross-linking assay (comparable procedure, conjugate formation, TOF mass spectrometry); parameters: key: 0: No observed x-linking; conditions: Table 4, percent covalently modified K-Ras by MS
Protocol: Protocol: K-Ras G12D(GDP) Cross-Linking Assay
Note: while the following protocol outlines the procedure for K-Ras G12D(GDP), a person of skill in the art may substitute other Ras proteins, and may also substitute a non-hydrolyzable GTP analog for GDP to study GTP bound Ras protein.
GDP-loaded K-Ras (1-169) G12D, C51S, C80L, C118S and GDP-loaded K-Ras (1-169) C51S, C80L, C118S were adjusted to 50 μM in K-Ras assay buffer (12.5 mM HEPES, 75 mM NaCl and 1 mM MgCl2 at pH 7.4). A 5 μL aliquot of each protein solution was added to each well of a 96-well microplate containing 40 μL of assay buffer. Initial compound stocks were prepared in DMSO at 100 times their final assay concentration. Compounds were then diluted 10-fold into K-Ras assay buffer to 10 times their final concentration. A 5 μL aliquot of each diluted compound solution was added to each protein solution in the 96-well microplate to initiate the reaction, which then proceeded at room temperature. Typical final compound concentrations were 2, 10, and 25 μM. At each time point, the reactions were analyzed immediately or quenched with 5 μL of a 5% formic acid solution and kept at 4° C. until analysis. Typical assay endpoints were 1 and 24 h.
Data collection took place on an Agilent 6230 TOF Mass Spectrometer. Complete reactions were injected onto a C4 reverse-phase column to separate protein from buffer components prior to entering the mass spectrometer. The proteins were eluted from the column by increasing acetonitrile fraction in the mobile phase and fed directly into the mass analyzer. Initial analysis of raw data took place in Agilent MassHunter BioConfirm software and consisted of deconvolution of multiple protein charge states with the maximum entropy algorithm, with a mass step of 1 Da. The heights of all deconvoluted protein masses were exported for further data analysis. The percent modification of each protein was then determined by calculating the peak height of the covalently modified K-Ras species as a percentage of the sum total of K-Ras protein peak height.

[2] = target: T2, GDP-loaded K-Ras (1-169) C51S, C80L, C118S (Homo sapiens, UniProt P01116, C118S/C51S/C80L); assay: K-Ras WT (GDP) cross-linking assay (conjugate formation, TOF mass spectrometry); parameters: key: 0: No observed x-linking; +: 0 < x ≤ 20; ++: 20 < x ≤ 40; +++: 40 < x ≤ 100; conditions: Table 4; percent covalently modified K-Ras by MS; room temperature; typical compound conc. 2, 10, 25 μM, endpoints 1 and 24 h
T2 construct: GDP-loaded K-Ras (1-169) C51S, C80L, C118S
How it was run: as §1

Compound	G12D x-linking (%) [1]	G12S x-linking (%) (K-Ras G12S)	WT x-linking (%) [2]
Cc1cccc2cccc(N3CCc4c(nc(OC[C@@H]5CCCN5C)nc4N(C)CCN=C=NCc4ccc(Cl)cc4)C3)c12 [Example 28, N-(2-((((4-chlorobenzyl)imino)methylene)amino)ethyl)-N-methyl-7-(8-methylnaphthalen-1-yl)-2-(((S)-1-methylpyrrolidin-2-yl)methoxy)-5,6,7,8-tetrahydropyrido[3,4-d]pyrimidin-4-amine]	++ (20 < x ≤ 40)	++ (10 < x ≤ 100)	+ (0 < x ≤ 20)
COc1ccc(CN=C=NCCN(C)c2nc(OC[C@@H]3CCCN3C)nc3c2CCN(c2cccc4cccc(C)c24)C3)cc1 [Example 29, N-(2-((((4-methoxybenzyl)imino)methylene)amino)ethyl)-N-methyl-7-(8-methylnaphthalen-1-yl)-2-(((S)-1-methylpyrrolidin-2-yl)methoxy)-5,6,7,8-tetrahydropyrido[3,4-d]pyrimidin-4-amine]	+++ (40 < x ≤ 100)	++ (10 < x ≤ 100)	++ (20 < x ≤ 100)
CCCN=C=NCCCN(C)c1nc(OC[C@@H]2CCCN2C)nc2c1CCN(c1cccc3cccc(C)c13)C2 [Example 30, N-methyl-7-(8-methylnaphthalen-1-yl)-2-(((S)-1-methylpyrrolidin-2-yl)methoxy)-N-(3-(((propylimino)methylene)amino)propyl)-5,6,7,8-tetrahydropyrido[3,4-d]pyrimidin-4-amine]	+++ (40 < x ≤ 100)	++ (10 < x ≤ 100)	++ (20 < x ≤ 100)
Cc1cccc2cccc(N3CCc4c(nc(OC[C@@H]5CCCN5C)nc4N(C)CCCN=C=NCc4ccccc4)C3)c12 [Example 31, N-(3-(((benzylimino)methylene)amino)propyl)-N-methyl-7-(8-methylnaphthalen-1-yl)-2-(((S)-1-methylpyrrolidin-2-yl)methoxy)-5,6,7,8-tetrahydropyrido[3,4-d]pyrimidin-4-amine]	+++ (40 < x ≤ 100)	++ (10 < x ≤ 100)	++ (20 < x ≤ 100)
Cc1cccc2cccc(N3CCc4c(nc(OC[C@@H]5CCCN5C)nc4N(C)CCCN=C=NCc4ccc(Cl)cc4)C3)c12 [Example 32, N-(3-((((4-chlorobenzyl)imino)methylene)amino)propyl)-N-methyl-7-(8-methylnaphthalen-1-yl)-2-(((S)-1-methylpyrrolidin-2-yl)methoxy)-5,6,7,8-tetrahydropyrido[3,4-d]pyrimidin-4-amine]	+ (0 < x ≤ 20)	+ (0 < x ≤ 10)	+ (0 < x ≤ 20)
COc1ccc(CN=C=NCCCN(C)c2nc(OC[C@@H]3CCCN3C)nc3c2CCN(c2cccc4cccc(C)c24)C3)cc1 [Example 33, N-(3-((((4-methoxybenzyl)imino)methylene)amino)propyl)-N-methyl-7-(8-methylnaphthalen-1-yl)-2-(((S)-1-methylpyrrolidin-2-yl)methoxy)-5,6,7,8-tetrahydropyrido[3,4-d]pyrimidin-4-amine]	+++ (40 < x ≤ 100)	++ (10 < x ≤ 100)	++ (20 < x ≤ 100)
Cc1cccc2cccc(N3CCc4c(nc(OC[C@@H]5CCCN5C)nc4N4CCN(C(=O)NCCCl)[C@@H](CC#N)C4)C3)c12 [Example 34, (S)—N-(2-chloroethyl)-2-(cyanomethyl)-4-(7-(8-methylnaphthalen-1-yl)-2-(((S)-1-methylpyrrolidin-2-yl)methoxy)-5,6,7,8-tetrahydropyrido[3,4-d]pyrimidin-4-yl)piperazine-1-carboxamide]	+ (0 < x ≤ 20)	+ (0 < x ≤ 10)	+ (0 < x ≤ 20)
Cc1cccc2cccc(N3CCc4c(nc(OC[C@@H]5CCCN5C)nc4NCCNC(=O)NCCCl)C3)c12 [Example 36, (S)-1-(2-chloroethyl)-3-(2-((7-(8-methylnaphthalen-1-yl)-2-((1-methylpyrrolidin-2-yl)methoxy)-5,6,7,8-tetrahydropyrido[3,4-d]pyrimidin-4-yl)amino)ethyl)urea]	+ (0 < x ≤ 20)	+ (0 < x ≤ 10)	+ (0 < x ≤ 20)
Cc1cccc2cccc(N3CCc4c(nc(OC[C@@H]5CCCN5C)nc4NCCN(C)C(=O)NCCCl)C3)c12 [Example 37, (S)-3-(2-chloroethyl)-1-methyl-1-(2-((7-(8-methylnaphthalen-1-yl)-2-((1-methylpyrrolidin-2-yl)methoxy)-5,6,7,8-tetrahydropyrido[3,4-d]pyrimidin-4-yl)amino)ethyl)urea]	0	0	0
Cc1cccc2cccc(N3CCc4c(nc(OC[C@@H]5CCCN5C)nc4N4CCC(N(C)C(=O)C5CN5)CC4)C3)c12 (stereo partly drawn) [Example 42, N-methyl-(1-(7-(8-methylnaphthalen-1-yl)-2-(((S)-1-methylpyrrolidin-2-yl)methoxy)-5,6,7,8-tetrahydropyrido[3,4-d]pyrimidin-4-yl)piperidin-4-yl)aziridine-2-carboxamide]	+ (0 < x ≤ 20)	+ (0 < x ≤ 10)	+ (0 < x ≤ 20)

Now from value to compound:

G12D x-linking (%) [1]	G12S x-linking (%) (K-Ras G12S)	WT x-linking (%) [2]	Compound
0	0	0	Cc1cccc2cccc(N3CCc4c(nc(OC[C@@H]5CCCN5C)nc4N4CCN(C5=NCCO5)[C@@H](CC#N)C4)C3)c12 [Example 38, 2-((S)-1-(4,5-dihydrooxazol-2-yl)-4-(7-(8-methylnaphthalen-1-yl)-2-(((S)-1-methylpyrrolidin-2-yl)methoxy)-5,6,7,8-tetrahydropyrido[3,4-d]pyrimidin-4-yl)piperazin-2-yl)acetonitrile]
0	0	0	Cc1cccc2cccc(N3CCc4c(nc(OC[C@@H]5CCCN5C)nc4N4CCN(C5=NCCO5)CC4)C3)c12 [Example 39]
+ (0 < x ≤ 20)	+ (0 < x ≤ 10)	+ (0 < x ≤ 20)	Cc1cccc2cccc(N3CCc4c(nc(OC[C@@H]5CCCN5C)nc4NCCNC4=NCCO4)C3)c12 [Example 40, (S)—N^1-(4,5-dihydrooxazol-2-yl)-N^2-(7-(8-methylnaphthalen-1-yl)-2-((1-methylpyrrolidin-2-yl)methoxy)-5,6,7,8-tetrahydropyrido[3,4-d]pyrimidin-4-yl)ethane-1,2-diamine]
0	0	0	Cc1cccc2cccc(N3CCc4c(nc(OC[C@@H]5CCCN5C)nc4NCCN(C)C4=NCCO4)C3)c12 [Example 41, (S)—N^1-(4,5-dihydrooxazol-2-yl)-N^1-methyl-N^2-(7-(8-methylnaphthalen-1-yl)-2-((1-methylpyrrolidin-2-yl)methoxy)-5,6,7,8-tetrahydropyrido[3,4-d]pyrimidin-4-yl)ethane-1,2-diamine]
+ (0 < x ≤ 20)	+ (0 < x ≤ 10)	+ (0 < x ≤ 20)	CC(=O)N1CC1C(=O)N(C)C1CCN(c2nc(OC[C@@H]3CCCN3C)nc3c2CCN(c2cccc4cccc(C)c24)C3)CC1 (stereo partly drawn) [Example 43, 1-acetyl-N-methyl-N-(1-(7-(8-methylnaphthalen-1-yl)-2-(((S)-1-methylpyrrolidin-2-yl)methoxy)-5,6,7,8-tetrahydropyrido[3,4-d]pyrimidin-4-yl)piperidin-4-yl)aziridine-2-carboxamide]
+ (0 < x ≤ 20)	+ (0 < x ≤ 10)	+ (0 < x ≤ 20)	Cc1cccc2cccc(N3CCc4c(nc(OC[C@@H]5CCCN5C)nc4N4CCC(N(C)C(=O)C5CN5S(C)(=O)=O)CC4)C3)c12 (stereo partly drawn) [Example 44, N-methyl-(1-(7-(8-methylnaphthalen-1-yl)-2-(((S)-1-methylpyrrolidin-2-yl)methoxy)-5,6,7,8-tetrahydropyrido[3,4-d]pyrimidin-4-yl)piperidin-4-yl)-1-(methylsulfonyl)aziridine-2-carboxamide]
